Experimental data from US5126365A, “Bicyclic derivatives” (Imperial Chemical Industries PLC, priority 1989, dated 1992).

How the values were obtained:
[1] = tested on: 5-LO; experiment: Test c) ex vivo assay: administration of test compound, blood collection, A23187 challenge, radioimmunoassay of LTB4; assay type: in vivo; details: oral
Description: c) An ex vivo assay system, which is a variation of test b) above, involving administration of a test compound (usually orally as the suspension produced when a solution of the test compound in dimethylsulphoxide is added to carboxymethylcellulose), blood collection, heparinisation, challenge with A23187 and radioimmunoassay of LTB4 and TxB2. This test provides an indication of the bioavailability of a test compound as an inhibitor of 5-LO or cyclooxygenase.

[2] = tested on: 5-LO; experiment: Test g) liberation of LTB4 induced by zymosan within an air pouch in male rats; assay type: in vivo; details: oral, rat zymosan air pouch, 3 hours
Description: g) An in vivo system involving measuring the effects of a test compound administered orally against the liberation of LTB4 induced by zymosan within an air pouch generated within the subcutaneous tissue of the back of male rats. The rats are anaesthetised and air pouches are formed by the injection of sterile air (20 ml). A further injection of air (10 ml) is similarly given after 3 days. At 6 days after the initial air injection the test compound is administered (usually orally as the suspension produced when a solution of the test compound in dimethylsulphoxide is added to hydroxypropylmethylcellulose), followed by the intrapouch injection of zymosan (1 ml of a 1% suspension in physiological saline). After 3 hours the rats are killed, the air pouches are lavaged with physiological saline, and the specific radioimmunoassay described above is used to assay LTB4 in the washings. This test provides an indication of inhibitory effects against 5-LO in an inflammatory milieu.

[3] = tested on: 5-LO; experiment: Test b) in vitro heparinised human blood challenged with A23187, LTB4 radioimmunoassay (5-LO); assay type: cell-based; details: A23187 challenge
Description: b) An in vitro assay system involving incubating a test compound with heparinised human blood, prior to challenge with the calcium ionophore A23187 and then indirectly measuring the inhibitory effects on 5-LO by assaying the amount of LTB4 using the specific radioimmunoassay described by Carey and Forder (F. Carey and R. A. Forder, Brit. J. Pharmacol. 1985, 84, 34P) which involves the use of a protein-LTB4 conjugate produced using the procedure of Young et alia (Prostaglandins, 1983, 26(4), 605-613). The effects of a test compound on the enzyme cyclooxygenase (which is involved in the alternative metabolic pathway for arachidonic acid and gives rise to prostaglandins, thromboxanes and related metabolites) may be measured at the same time using the specific radioimmunoassay for thromboxane B2 (TxB2) described by Carey and Forder (see above). This test provides an indication of the effects of a test compound against 5-LO and also cyclooxygenase in the presence of blood cells and proteins. It permits the selectivity of the inhibitory effect on 5-LO or cyclooxygenase to be assessed.

IC50 [3]: 300 nM
SMILES: COC1(c2ccc3c(c2)OC(c2ccc4ccccc4c2)O3)CCOCC1 (stereo not drawn) [5-(4-methoxytetrahydropyran-4-yl)-2-(naphth-2-yl)benzo-1,3-dioxole]
ED50 [1]: 5 mg/kg | ED50 [2]: < 3 mg/kg
